The target in one test is T1, human GPR40 (Homo sapiens, UniProt O14842, R211H).
T1 construct: expressed in transfected cells
Kind of test: Measurement of GPR40 agonistic activity (FLIPR, change in intracellular calcium concentration). Format: cell-based. The note with it: CHO cell strain expressing human GPR40; changes in fluorescence intensity after 1 minute. The source says:
Test Method 1: Measurement of GPR40 Agonistic Activity i) Cloning of Human GPR40
A full-length sequence of GPR40 was obtained by PCR method using human genomic DNA (Clontech) as a template in accordance with the procedure shown below.
An oligonucleotide consisting of the base sequence represented by SEQ ID NO: 1 was used as the forward primer, and an oligonucleotide consisting of the base sequence represented by SEQ ID NO: 2 as the reverse primer. In this connection, a base sequence comprising a XbaI recognition region was added to the respective 5′-termini of the aforementioned forward primer and reverse primer. PCR was carried out in the presence of 5% dimethylsulfoxide (DMSO) using a Taq DNA polymerase (Ex Taq DNA polymerase; Takara Bio), by repeating 30 times of a cycle consisting of 94° C. (15 seconds)/55° C. (30 seconds)/72° C. (1 minute). As a result, a DNA fragment of about 0.9 kbp was amplified. This DNA fragment was digested with XbaI and then inserted into the XbaI site of a plasmid pEF-BOS-dhfr (Nucleic acids Research, 18, 5322, 1990), thereby obtaining a plasmid pEF-BOS-dhfr-GPR40.
The base sequence of the GPR40 gene in the pEF-BOS-dhfr-GPR40 was determined by the dideoxy terminator method using a DNA sequencer (ABI 377 DNA Sequencer, Applied Biosystems). The base sequence of the GPR40 gene was represented by the base sequence SEQ ID NO: 3. […]
ii) Preparation of GPR40 Stable Expression Cell
As the cell for expressing GPR40 protein, a CHO dhfr cell (a dihydrofolate reductase (dhfr) gene-deficient CHO cell) was used. Also, as the plasmid for expressing GPR40 protein, the plasmid pEF-BOS-dhfr-GPR40 obtained in the aforementioned i) was used. The CHO dhfr cell was inoculated into an αMEM medium containing 10% fetal calf serum (FCS) using a 6 well plate (Asahi Techno Glass) and cultured overnight to a confluence of 80 to 90%, and then 2 μg per well of the plasmid pEF-BOS-dhfr-GPR40 was gene-transferred using a transfection reagent (Lipofectamine 2000; Invitrogen). After 24 hours of culturing from the gene transfer, the cells were diluted and inoculated again. […] After 20 days of culturing, the formed colonies of cells were individually recovered and cultured to obtain CHO cells stably expressing GPR40. From these, cells having high reactivity for intrinsic ligands oleic acid and linoleic acid were selected. […]
iii) Measurement of GPR40 Agonistic Activity
The present test was measured by FLIPR (registered trademark, Molecular Devices) using a change in intracellular calcium concentration as the index. Hereinafter, the test method will be shown.
A CHO cell strain in which human GPR40 was expressed was inoculated into a 384 well black plate (Becton Dickinson) at 6×10^3 cells per well portion and cultured overnight in a CO2 incubator.
Using a Calcium-3 assay kit (Molecular Devices), one bottle of the phosphorescent pigment was dissolved in 10 ml of HBSS-HBEPES buffer (pH 7.4, 1×HBSS, 20 mM HEPES, Invitrogen). 35.68 mg of Probenecid (Sigma) was dissolved in 250 μl of 1 M NaOH and adjusted by adding 250 μl of the HBSS-HEPES buffer. A phosphorescent pigment solution was prepared by mixing 16 ml of HBSS-HEPES buffer, 640 μl of the phosphorescent pigment and 32 μl of probenecid per one plate. The medium was discarded from the plate, and the phosphorescent pigment solution was dispensed at 40 μl per well portion and then incubated at room temperature for 2 hours. Each compound to be tested was dissolved in DMSO and then diluted with HBSS-HEPES buffer and dispensed in 10 μl portions into the plate, thereby starting the reaction, and changes in the intracellular calcium concentration were measured by FLIPR. The EC50 value of each compound to be tested was calculated by a dose-response curve of changes in fluorescence intensity after 1 minute of the measurement.
Background: A change in cytosolic calcium serves as a functional read-out for many receptors and channels.

Another test has as its system Male ICR mice. The test is described as follows: Normal mice single oral glucose tolerance test. The test is classed as in vivo. The note with it: Mus musculus, 0.5 h, orally 10 mg/kg 30 minutes before glucose loading (2 g/kg), 30 minutes after glucose loading, relative to control group, read-out: Blood glucose increase inhibition rate. The method, then:
Test Method 3: Normal Mice Single Oral Glucose Tolerance Test
The present test was to examine the blood glucose increase inhibiting action of the test compound after glucose loading, using normal mice. Hereinafter, the test method will be shown.
Male ICR mice (6 weeks of age) after 1 week of acclimatization were subjected to overnight fasting and used as test animals. The test compound was made into a 0.01 M aqueous sodium hydroxide solution and orally administered at a dose of 10 mg/kg 30 minutes before the glucose loading (2 g/kg). A 0.01 M aqueous sodium hydroxide solution was administered to the control group. The blood glucose increase inhibitory ratio (%) after 30 minutes of glucose loading was calculated, relative to the control group.
When the compound of Example 72 described in Pamphlet of International Publication WO2005/087710 was orally administered at 10 mg/kg by the same method as the test method 3 above, the blood glucose increase inhibition rate was measured and found to be 9%, whereas when the compound was orally administered at 30 mg/kg, the blood glucose increase inhibition rate was 20%. […] Further, in the present test, a minimum administration amount showing a blood glucose increase inhibition rate of 20% or more or a minimum administration amount showing a significance (Dunnet multiple comparison test) relative to a control was taken as a minimum effective dose (MED).

T1 sequence (O14842 whole entry R211H): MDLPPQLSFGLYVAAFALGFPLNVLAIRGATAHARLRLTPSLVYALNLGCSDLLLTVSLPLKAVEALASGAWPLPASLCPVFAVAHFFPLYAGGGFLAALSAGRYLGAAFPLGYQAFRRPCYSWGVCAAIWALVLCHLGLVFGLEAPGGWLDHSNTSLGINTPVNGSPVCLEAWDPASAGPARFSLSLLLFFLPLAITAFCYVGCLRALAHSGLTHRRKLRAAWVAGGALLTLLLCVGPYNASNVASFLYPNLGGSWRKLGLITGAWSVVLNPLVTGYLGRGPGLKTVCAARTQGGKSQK

Turning to `Cc1cc(OC[C@@H](O)CO)cc(C)c1-c1cccc(COc2ccc3c(c2)OC2(CC2)C3CC(=O)O)c1C` (single isomer, unassigned) [Example 25-5a], the EC50 (as a rule, the concentration that produces a half-maximal response) on human GPR40 was 0.35 µM.
Take `Cc1cc(OC[C@@H](O)CO)cc(C)c1-c1cccc(COc2ccc3c(c2)OC2(CC2)C3CC(=O)O)c1C` (single isomer, unassigned) [Example 25-5b]: the EC50 on human GPR40 came to 0.26 µM.
Same read-out and setting: under `Cc1cc(OCC[C@H](O)CO)cc(C)c1-c1cccc(COc2ccc3c(c2)OC2(CC2)C3CC(=O)O)c1C` (single isomer, unassigned) [Example 25-7a] stands 0.49 µM; under `Cc1cc(OCC[C@H](O)CO)cc(C)c1-c1cccc(COc2ccc3c(c2)OC2(CC2)C3CC(=O)O)c1C` (single isomer, unassigned) [Example 25-7b], 0.33 µM.
With `Cc1cc(OCCO)cc(C)c1-c1cccc(CNc2ccc3c(c2)CC2(CC2)C3CC(=O)O)c1C` (single isomer, unassigned) [Example 25b, [5′-({[4′-(2-hydroxyethoxy)-2,2′,6′-trimethylbiphenyl-3-yl]methyl}amino)-1′,3′-dihydrospiro[cyclopropan-1,2′-inden]-1′-yl]acetic acid], the EC50 on human GPR40 stood at 0.21 µM. Also, the inhibition in vivo at 10 mg/kg with Male ICR mice stood at 33%.
On the same counts, the results for `Cc1cc(OCCO)cc(C)c1-c1cccc(COc2ccc3c(c2)-c2ccccc2C3CC(=O)O)c1C` (stereo not drawn) [Example 2, sodium (3-{[4′-(2-hydroxyethoxy)-2,2′,6′-trimethylbiphenyl-3-yl]methoxy}-9H-fluoren-9-yl)acetate] are 0.52 µM and 37%.
The matching figures for `Cc1cc(OCCC(C)(C)O)cc(C)c1-c1cccc(CNc2ccc3c(c2)CC2(CC2)C3CC(=O)O)c1C` (stereo not drawn) [Example 2-2]: 0.79 µM and 34%.
On to `Cc1cc(OC[C@H](O)CO)cc(C)c1-c1cccc(COc2ccc3c(c2)CC2(CC2)C3CC(=O)O)c1C` (stereo partly drawn) [Example 4, sodium {5′-[(4′-{[(2R)-2,3-dihydroxypropyl]oxy}-2,2′,6′-trimethylbiphenyl-3-yl)methoxy]-1′,3′-dihydrospiro[cyclopropan-1,2′-inden]-1′-yl}acetate], for which, at human GPR40, the EC50 stood at 0.25 µM. For the same compound, the inhibition in vivo at 10 mg/kg in the test with Male ICR mice is 20%.
The matching figures for `Cc1cccc(C)c1-c1cccc(COc2ccc3c(c2)-c2ccccc2C3CC(=O)O)c1C` (stereo not drawn) [Example 6, 0.5 calcium {3-[(2,2′,6′-trimethylbiphenyl-3-yl)methoxy]-9H-fluoren-9-yl}acetate]: 0.78 µM and 35%.
On the same counts, the results for `Cc1cc(OC[C@H](O)CO)cc(C)c1-c1cccc(COc2ccc3c(c2)-c2ccccc2C3CC(=O)O)c1C` (stereo partly drawn) [Example 8, sodium {3-[(4′-{[(2R)-2,3-dihydroxypropyl]oxy}-2,2′,6′-trimethylbiphenyl-3-yl)methoxy]-9H-fluoren-9-yl}acetate] are 0.61 µM and 25%.
On the same counts, the results for `COCCOc1cc(C)c(-c2cccc(CNc3ccc4c(c3)CC3(CC3)C4CC(=O)O)c2C)c(C)c1` (stereo not drawn) [Example 8-3] are 0.61 µM and 21%.
For the compound `Cc1nc(OCCC(C)(C)O)nc(C)c1-c1cccc(COc2ccc3c(c2)CC2(CC2)C3CC(=O)O)c1C` (stereo not drawn) [Example 8-12], the EC50 at human GPR40 was determined as 0.59 µM. Further, in the test with Male ICR mice, the inhibition in vivo at 10 mg/kg turned out to be 24%.
The matching figures for `Cc1cc(OCCO)cc(C)c1-c1cccc(COc2ccc3c(c2)OC2(CC2)C3CC(=O)O)c1C` (stereo not drawn) [Example 20, sodium (6-{[4′-(2-hydroxyethoxy)-2,2′,6′-trimethylbiphenyl-3-yl]methoxy}-3H-spiro[1-benzofuran-2,1′-cyclopropan]-3-yl)acetate]: 0.49 µM and 40%.
The matching figures for `Cc1cc(OCCC(C)(C)O)cc(C)c1-c1cccc(COc2ccc3c(c2)OC2(CC2)C3CC(=O)O)c1C` (stereo not drawn) [Example 21, sodium (6-{[4′-(3-hydroxy-3-methylbutoxy)-2,2′,6′-trimethylbiphenyl-3-yl]methoxy}-3H-spiro[1-benzofuran-2,1′-cyclopropan]-3-yl)acetate]: 0.81 µM and 43%.
The matching figures for `COCCOc1cc(C)c(-c2cccc(COc3ccc4c(c3)OC3(CC3)C4CC(=O)O)c2C)c(C)c1` (stereo not drawn) [Example 21-1]: 0.75 µM and 30%.
Regarding `CCOCCOc1cc(C)c(-c2cccc(COc3ccc4c(c3)OC3(CC3)C4CC(=O)O)c2C)c(C)c1` (stereo not drawn) [Example 21-2], the EC50 at human GPR40 turned out to be 0.81 µM. Also, the inhibition in vivo at 10 mg/kg in the test on Male ICR mice came to 23%.
The matching figures for `COCCCOc1cc(C)c(-c2cccc(COc3ccc4c(c3)OC3(CC3)C4CC(=O)O)c2C)c(C)c1` (stereo not drawn) [Example 21-3]: 0.71 µM and 32%.
The matching figures for `Cc1cc(OC[C@H](O)CO)cc(C)c1-c1cccc(COc2ccc3c(c2)OC2(CC2)C3CC(=O)O)c1C` (stereo partly drawn) [Example 22, sodium {6-[(4′-{[(2R)-2,3-dihydroxypropyl]oxy}-2,2′,6′-trimethylbiphenyl-3-yl)methoxy]-3H-spiro[1-benzofuran-2,1′-cyclopropan]-3-yl}acetate]: 0.25 µM and 34%.
Consider `Cc1cc(OC[C@@H](O)CO)cc(C)c1-c1cccc(COc2ccc3c(c2)OC2(CC2)C3CC(=O)O)c1C` (stereo partly drawn) [Example 22-1], for which the EC50 on human GPR40 worked out at 0.27 µM. The inhibition in vivo at 10 mg/kg with Male ICR mice is 35%.
The matching figures for `Cc1cc(OCC[C@@H](O)CO)cc(C)c1-c1cccc(COc2ccc3c(c2)OC2(CC2)C3CC(=O)O)c1C` (stereo partly drawn) [Example 22-2]: 0.43 µM and 34%.
The matching figures for `Cc1cc(OCC[C@H](O)CO)cc(C)c1-c1cccc(COc2ccc3c(c2)OC2(CC2)C3CC(=O)O)c1C` (stereo partly drawn) [Example 22-3]: 0.47 µM and 38%.
On the same counts, the results for `Cc1nc(OCCO)nc(C)c1-c1cccc(COc2ccc3c(c2)CC2(CC2)C3CC(=O)O)c1C` (stereo not drawn) [Example 23, [5′-({3-[2-(2-hydroxyethoxy)-4,6-dimethylpyrimidin-5-yl]-2-methylbenzyl}oxy)-1′,3′-dihydrospiro[cyclopropan-1,2′-inden]-1′-yl]acetic acid] are 0.52 µM and 20%.
`Cc1cc(OCCO)cc(C)c1-c1cccc(COc2ccc3c(c2)OC2(CC2)C3CC(=O)O)c1C` (stereo not drawn) [Example 25-3a]: the EC50 on human GPR40 came to 0.56 µM.
For the compound `Cc1cc(OCCO)cc(C)c1-c1cccc(COc2ccc3c(c2)OC2(CC2)C3CC(=O)O)c1C` (stereo not drawn) [Example 25-3b], the EC50 at human GPR40 turned out to be 0.19 µM.

Source of the values: patent US20120035196A1, “CARBOXYLIC ACID COMPOUND” (priority 2009, published 2012).
